According to patent US20170319480A1, “PHARMACEUTICAL FORMULATION” (Boehringer Ingelheim International GmbH, priority 2014, published 2017):

Assay: Bioavailability of afatinib in fed state
Type: in vivo
Details: adults
Source text: As decreased bioavailability of afatinib has been observed in adults ad fed state, the oral solution is not intended to be administered with food or drinks.

CN(C)C/C=C/C(=O)Nc1cc2c(Nc3ccc(F)c(Cl)c3)ncnc2cc1O[C@H]1CCOC1 [afatinib, 4-[(3-chloro-4-fluorophenyl)amino]-6-{[4-(N,N-dimethylamino)-1-oxo-2-buten-1-yl]amino}-7-((S)-tetrahydrofuran-3-yloxy)-quinazoline]
bioavailability in fed state: decreased
